Assay results taken from the NIST ThermoML archive (doi:10.1021/je0340755).

Experiment: xn = mol fraction of the nth substance listed
Conditions: 101.3 kPa, Liquid; for viscosity: Capillary tube (Ostwald / Ubbelohde) method

CC(O)C(C)O (configuration not stated) [2,3-butanediol] + O
Conditions | mass density, 298.15 K [kg/m3] | mass density, 308.15 K [kg/m3] | mass density, 318.15 K [kg/m3] | speed of sound, 298.15 K [m/s] | speed of sound, 308.15 K [m/s] | speed of sound, 318.15 K [m/s] | viscosity, 298.15 K [mPa·s] | viscosity, 308.15 K [mPa·s] | viscosity, 318.15 K [mPa·s]
x2 = 0.0546 | 999.76 | 993.26 | 985.33 | 1483 | 1446.8 | 1418.4 | 41.89 | 21.57 | 12.04
x2 = 0.1435 | 1001.87 | 995.29 | 987.34 | 1501.3 | 1464.7 | 1436 | 36.73 | 19.07 | 10.64
x2 = 0.2458 | 1004.58 | 997.92 | 989.9 | 1520.7 | 1483.6 | 1454.5 | 30.5 | 16.07 | 8.953
x2 = 0.3539 | 1007.87 | 1001.1 | 993.04 | 1548.5 | 1510.7 | 1481.1 | 24.04 | 12.95 | 7.207
x2 = 0.4502 | 1011.19 | 1004.34 | 996.28 | 1576.9 | 1538.4 | 1508.2 | 18.63 | 10.32 | 5.737
x2 = 0.4989 | 1013.01 | 1006.11 | 998.08 | 1589.5 | 1550.7 | 1520.3 | 16.08 | 9.06 | 5.036
x2 = 0.5503 | 1014.99 | 1008.06 | 1000.07 | 1604.9 | 1565.8 | 1535.1 | 13.54 | 7.8 | 4.339
x2 = 0.6581 | 1019.13 | 1012.2 | – | 1637.2 | 1597.3 | – | 8.918 | 5.443 | 3.047
x2 = 0.7518 | 1021.95 | 1015.17 | – | 1667.8 | 1627.1 | – | 5.811 | 3.773 | 2.15
x2 = 0.8626 | 1021.36 | 1015.24 | – | 1673.2 | 1632.4 | – | 3.267 | 2.265 | 1.37
x2 = 0.9092 | 1017.89 | 1012.39 | – | 1657.9 | 1617.5 | – | 2.463 | 1.743 | 1.108
x2 = 0.9148 | 1017.25 | 1011.85 | – | 1651.5 | 1611.2 | – | 2.372 | 1.682 | 1.078
x2 = 0.9248 | 1015.95 | 1010.74 | – | 1645.4 | 1605.3 | – | 2.21 | 1.574 | 1.025
x2 = 0.9305 | 1015.11 | 1010.02 | – | 1640.3 | 1600.3 | – | 2.118 | 1.512 | 0.995
x2 = 0.935 | 1014.4 | 1009.4 | – | – | 1597.2 | – | 2.044 | 1.463 | 0.969
x2 = 0.9452 | 1012.61 | 1007.83 | – | – | 1588.3 | – | 1.878 | 1.352 | 0.915
x2 = 0.9542 | 1010.78 | 1006.24 | – | 1616.9 | 1577.5 | – | 1.729 | 1.254 | 0.866
x2 = 0.9703 | 1006.89 | 1002.81 | – | – | 1570.9 | – | 1.453 | 1.074 | 0.775
x2 = 0.98 | 1004.1 | 1000.33 | – | – | 1557.9 | – | 1.278 | 0.962 | 0.719
x2 = 0.9903 | 1000.7 | 997.3 | – | – | 1547.6 | – | 1.083 | 0.839 | 0.657
x2 = 0.9925 | 999.91 | 996.59 | – | – | 1543.9 | – | 1.04 | 0.812 | 0.644
x2 = 0.9951 | 998.95 | 995.73 | – | 1577.9 | 1539.4 | – | 0.99 | 0.779 | 0.627
